Reference: PubChem BioAssay AID1918995 (Molecular Pharmacology Branch, DTP, NCI, 2023)
Values joined by “and” are separate entries in the source; they are usually repeats but may differ in a detail not shown here. Equal entries are not always repeated. Blank lines part the entries; values can stand above or below the compound they belong to.

Tested on: 324938-238-R-J1-PDC complex spheroid growth, % test/control
Assay: Anticancer human tumor 324938-238-R-J1-PDC patient-derived bladder carcinoma cell line growth inhibition [AhR]
Details: for viability, T/C: stronger effect = lower value
Method in brief: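 Agents were dosed in half-log steps down from roughly clinical Cmax, or from 10 microM where Cmax was unknown, alone and with AhR antagonists. Read-out: percent test/control growth of tumor spheroids containing HUVEC and MSC stromal cells.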

[1] = curve of first compound, second compound 0.1 µM
[2] = curve of first compound, second compound 0.316 µM
[3] = curve of first compound, second compound 1 µM
[4] = curve of first compound, second compound 3.16 µM
[5] = curve of first compound, second compound 10 µM
[6] = second compound 0.1 µM, first compound 0.0316 µM
[7] = second compound 0.1 µM, first compound 0.1 µM
[8] = second compound 0.1 µM, first compound 0.316 µM
[9] = second compound 0.1 µM, first compound 1 µM
[10] = second compound 0.1 µM, first compound 3.16 µM
[11] = second compound 0.1 µM, first compound 10 µM
[12] = second compound 0.316 µM, first compound 0.0316 µM
[13] = second compound 0.316 µM, first compound 0.1 µM
[14] = second compound 0.316 µM, first compound 0.316 µM
[15] = second compound 0.316 µM, first compound 1 µM
[16] = second compound 0.316 µM, first compound 3.16 µM
[17] = second compound 0.316 µM, first compound 10 µM
[18] = second compound 1 µM, first compound 0.0316 µM
[19] = second compound 1 µM, first compound 0.1 µM
[20] = second compound 1 µM, first compound 0.316 µM
[21] = second compound 1 µM, first compound 1 µM
[22] = second compound 1 µM, first compound 3.16 µM
[23] = second compound 1 µM, first compound 10 µM
[24] = second compound 3.16 µM, first compound 0.0316 µM
[25] = second compound 3.16 µM, first compound 0.1 µM
[26] = second compound 3.16 µM, first compound 0.316 µM
[27] = second compound 3.16 µM, first compound 1 µM
[28] = second compound 3.16 µM, first compound 3.16 µM
[29] = second compound 3.16 µM, first compound 10 µM
[30] = second compound 10 µM, first compound 0.0316 µM
[31] = second compound 10 µM, first compound 0.1 µM
[32] = second compound 10 µM, first compound 0.316 µM
[33] = second compound 10 µM, first compound 1 µM
[34] = second compound 10 µM, first compound 3.16 µM
[35] = second compound 10 µM, first compound 10 µM
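Note: spheroids exposed to agents for seven days before viability read.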

IC50 [1]: > 10000 nM
IC50 [2]: > 10000 nM
IC50 [3]: > 10000 nM
IC50 [4]: > 10000 nM
IC50 [5]: > 10000 nM
SMILES: CC(C)c1c(-c2ccccc2)nc2c(C#N)c[nH]n2c1=O + CC(CO)NC(=O)c1cc(-c2ccc(Cl)cc2)nn(-c2cnn(C)c2)c1=O
viability, T/C [6]: 110%
viability, T/C [7]: 115%
viability, T/C [8]: 88.1%
viability, T/C [9]: 87.2%
viability, T/C [10]: 92.5%
viability, T/C [11]: 88%
viability, T/C [12]: 94.7%
viability, T/C [13]: 98.9%
viability, T/C [14]: 92.8%
viability, T/C [15]: 78.8%
viability, T/C [16]: 88.5%
viability, T/C [17]: 81.2%
viability, T/C [18]: 87.5%
viability, T/C [19]: 88.1%
viability, T/C [20]: 87.4%
viability, T/C [21]: 76.5%
viability, T/C [22]: 89.2%
viability, T/C [23]: 75.8%
viability, T/C [24]: 73.4%
viability, T/C [25]: 76.4%
viability, T/C [26]: 71%
viability, T/C [27]: 64.4%
viability, T/C [28]: 63.4%
viability, T/C [29]: 60.9%
viability, T/C [30]: 65.4%
viability, T/C [31]: 67%
viability, T/C [32]: 64%
viability, T/C [33]: 57.9%
viability, T/C [34]: 54.9%
viability, T/C [35]: 56.5%

IC50 [1]: 139 nM
IC50 [2]: 101 nM
IC50 [3]: 85.5 nM
IC50 [4]: 66.2 nM
IC50 [5]: 71 nM
SMILES: COc1cc(Nc2ncc3c(n2)-c2ccc(Cl)cc2C(c2c(F)cccc2OC)=NC3)ccc1C(=O)O + Cc1ccccc1N=Nc1ccc(NC(=O)c2ccnn2C)c(C)c1
viability, T/C [6]: 72.5%
viability, T/C [7]: 55.7%
viability, T/C [8]: 36.1%
viability, T/C [9]: 31.9%
viability, T/C [10]: 31.6%
viability, T/C [11]: 39.4%
viability, T/C [12]: 66.7%
viability, T/C [13]: 50.1%
viability, T/C [14]: 32.8%
viability, T/C [15]: 32.5%
viability, T/C [16]: 33.8%
viability, T/C [17]: 34.3%
viability, T/C [18]: 65.1%
viability, T/C [19]: 47.6%
viability, T/C [20]: 31.6%
viability, T/C [21]: 31.2%
viability, T/C [22]: 30.4%
viability, T/C [23]: 34.8%
viability, T/C [24]: 57.4%
viability, T/C [25]: 45.9%
viability, T/C [26]: 27.5%
viability, T/C [27]: 28.7%
viability, T/C [28]: 27.5%
viability, T/C [29]: 30.1%
viability, T/C [30]: 60.4%
viability, T/C [31]: 49.1%
viability, T/C [32]: 34.8%
viability, T/C [33]: 36.9%
viability, T/C [34]: 37%
viability, T/C [35]: 41.7%

IC50 (curve of compound): 4380 nM and > 10000 nM
SMILES: COc1ccc([C@@H](O)c2cc(-c3ncnc4cc(N5CCOCC5)ccc34)c(F)cc2Cl)nn1
viability, T/C (compound 0.0316 µM): 109% (2×) and 99.4%
viability, T/C (compound 0.1 µM): 115% and 112% and 109%
viability, T/C (compound 0.316 µM): 59.1% and 92.5% and 94%
viability, T/C (compound 1 µM): 82.9% and 89.8% and 84%
viability, T/C (compound 3.16 µM): 59.8% and 80.3% and 73.2%
viability, T/C (compound 10 µM): 33.9% and 66% and 60.1%

IC50 [1]: 19.6 nM
IC50 [2]: 20.7 nM
IC50 [3]: 18.5 nM
IC50 [4]: 17 nM
IC50 [5]: 20 nM
SMILES: CC[C@@]1(O)C(=O)OCc2c1cc1n(c2=O)Cc2cc3c(CN(C)C)c(O)ccc3nc2-1 + Cc1ccccc1N=Nc1ccc(NC(=O)c2ccnn2C)c(C)c1
viability, T/C (second compound 0.1 µM, first compound 0.000316 µM): 102%
viability, T/C (second compound 0.1 µM, first compound 0.001 µM): 107%
viability, T/C (second compound 0.1 µM, first compound 0.00316 µM): 88.9%
viability, T/C (second compound 0.1 µM, first compound 0.01 µM): 74.6%
viability, T/C [6]: 32.8%
viability, T/C [7]: 16.2%
viability, T/C (second compound 0.316 µM, first compound 0.000316 µM): 91.9%
viability, T/C (second compound 0.316 µM, first compound 0.001 µM): 101%
viability, T/C (second compound 0.316 µM, first compound 0.00316 µM): 94.8%
viability, T/C (second compound 0.316 µM, first compound 0.01 µM): 70.7%
viability, T/C [12]: 38.1%
viability, T/C [13]: 17.4%
viability, T/C (second compound 1 µM, first compound 0.000316 µM): 86.8%
viability, T/C (second compound 1 µM, first compound 0.001 µM): 98.5%
viability, T/C (second compound 1 µM, first compound 0.00316 µM): 86.6%
viability, T/C (second compound 1 µM, first compound 0.01 µM): 66%
viability, T/C [18]: 36%
viability, T/C [19]: 15.7%
viability, T/C (second compound 3.16 µM, first compound 0.000316 µM): 86.2%
viability, T/C (second compound 3.16 µM, first compound 0.001 µM): 86.3%
viability, T/C (second compound 3.16 µM, first compound 0.00316 µM): 87%
viability, T/C (second compound 3.16 µM, first compound 0.01 µM): 61.9%
viability, T/C [24]: 34.7%
viability, T/C [25]: 15.6%
viability, T/C (second compound 10 µM, first compound 0.000316 µM): 83.9%
viability, T/C (second compound 10 µM, first compound 0.001 µM): 88.3%
viability, T/C (second compound 10 µM, first compound 0.00316 µM): 73.6%
viability, T/C (second compound 10 µM, first compound 0.01 µM): 63.9%
viability, T/C [30]: 41.3%
viability, T/C [31]: 18.7%

IC50 (curve of compound): 2790 nM and 2980 nM and 2550 nM
SMILES: O=C(C=Cc1cccc(S(=O)(=O)Nc2ccccc2)c1)NO
viability, T/C (compound 0.0316 µM): 100% and 110% and 114%
viability, T/C (compound 0.1 µM): 92% and 98.7% and 110%
viability, T/C (compound 0.316 µM): 109% and 89.2% and 81.5%
viability, T/C (compound 1 µM): 85.5% and 66.9% and 72.5%
viability, T/C (compound 3.16 µM): 46% and 49.9% and 51.9%
